Test: distribution coefficient log P (octanol/water) of raw materials
Type: physicochemical
Conditions: raw material of one-component malodor suppressant system
From the text: In the fields of organic and medicinal chemistry, a distribution (P) coefficient is the ratio of concentrations of a compound in the two phases of a mixture of two immiscible solvents at equilibrium. […] One of the solvents chosen is water while the second is octanol. […] The partition coefficient is the ratio of concentrations of un-ionized compound between the two solutions. The logarithm of the ratio of the concentrations of the un-ionized solute in the solvents is called log P:
[formula] The log P (octanol/water) is referred hereinafter as “log P”, unless otherwise specified.

log P (octanol/water)	Compound
7.41	CCCCCCCCCCCCCC(=O)OC(C)C [S1, isopropylmyristate]
4.90	Operanide [S4]

Compound	log P (octanol/water)
CC1COCc2cc3c(cc21)C(C)(C)C(C)C3(C)C (stereo not drawn) [S3, Galaxolide]	5.93
